Experimental data as given in US20050102708A1, “Animal model simulating neurologic disease” (priority 2003, published 2005).

Key:
[1] = test system: Hyperphosphorylated Tau protein; assay: ELISA of hyperphosphorylated Tau protein in CSF; type: in vivo, rat; conditions: rats, four week infusion into the left ventricle
Method: (§1) Surgical procedure: Anesthetized rats (equitesin, 3 ml/kg, i.p.) were placed on a stereotaxic frame. Using the electrode micromanipulator, the outlet of an osmotic micropump (Durect Corp., Cupertino, Calif.) was implanted into the left ventricle following the coordinates D=3.4 mm, L=1.4 mm and AP=0.92 mm prior to the bregma. The tank of the osmotic pump was implanted in a subcutaneous pocket in the midscapular area of the back of the rat. After surgery rats were put on a heating blanket for recovery. During the whole procedure, the body temperature was monitored and kept stable at 37° C.
Perfusion: Rats were divided into six groups regarding the composition of the solution contained in the osmotic micropump tank, as provided in Table 1. Group I served as the control group and received only artificial cerebrospinal fluid (“CSF”).
ELISA: Hyperphosphorylated Tau protein was measured in the CSF using the Elisa kit INNOTEST™ (Innogenetics, Belgium).

Long-Evans male rats = assay: Morris watermaze memory retention test; type: in vivo, rat; conditions: four week infusion into the left ventricle, tested at end of perfusion period
Text: Inducing a Neurologic Disease in a Non-Human Animal. Animals: Long-Evans male rats weighing 300-325 grams were housed following a natural day-night cycle with food and water ad libitum.
Morris watermaze protocol: Before the surgery, the rats were trained on a standard Morris spatial navigation task in a black water tank (200 cm diameter). The water was rendered opaque by water-miscible non-toxic white paint (Crayola Inc.). The rats were placed in four different, randomly assigned, start positions and trained to find an invisible platform (20 cm diameter) at a fixed position in the middle of the water tank. The water temperature was about 24° C. A trial lasted until a rat found the platform or until 120 seconds elapsed. […] Rats were trained for four consecutive days, four trials a day, with 30 minutes between subsequent trials. Surgery procedures were performed on the fifth day. Rats were tested again for memory retention at the end of the four weeks-perfusion period.
as §1, with “The tank of the osmotic pump was implanted in a subcutaneous pocket in the midscapular area of the back of the rat. After surgery rats were put on a heating blanket for recovery.” left out, “C. […]” for “C.”

β42-amyloid peptide [Aβ42]
phosphorylated Tau protein in the CSF [1]: not sufficient to induce | memory impairment / latency to retrieve the platform in the Morris watermaze test (Long-Evans male rats): not sufficient to induce memory impairment
